From patent publication US20250269039A1, “THERAPEUTIC-OLIGONUCLEOTIDES ACTIVATED BY NUCLEASES” (priority 2020, published 2025)
Values after ≈ are worked out from the molar mass of the structure shown. Read-outs that look alike come from different tables or passages of the source.

Assays:
S. aureus (MN+) = experiment: Nuclease activity assay with culture supernatants; assay type: biochemical, Staphylococcus aureus
Method: (§1) Nuclease activity assay. Nuclease activity of different S. aureus strains was evaluated using the TTprobe and TTprobe 2, along with the S. epidermidis as negative control and Micrococcal Nuclease (MN) as positive control. Single colonies of each bacteria strain isolated on tryptone soy agar were transferred to 50 mL tryptone soy broth and incubated at 37° C. for 24 hours with 200 rpm shaking. After the incubation period, 100 μL volumes of liquid cultures were transferred to a fresh 50 mL tryptone soy broth (1/500 dilution) and incubated under the same conditions for 12 hours. Next, cultures were centrifuged at 4500 g for 30 minutes and the supernatants were used for the nuclease activity assay. Briefly, 8 μL of supernatants were mixed with 1 μL PBS+/+ and 1 μL TT probe. The reactions were incubated at 37° C. for 1 hour. Then, 290 μL of 10 mM EDTA in PBS−/− solution were added to stop the reaction and the final solution was divided into triplicate wells (95 μL each), in a black flat-bottom polystyrene plates (Thermo Scientific F96). Fluorescence intensity was acquired at 485/20 excitation and 528/20 emission filter pair using Cytation 1 Cell Imaging Multimode Reader (Biotek Instruments Inc., USA).

[1] = tested on: Staphylococcus epidermidis (MN-); experiment: Nuclease activity assay with culture supernatants (negative control); assay type: biochemical; conditions: S. epidermidis cultures; FIG. 3
Method: as §1

S. aureus = experiment: Growth inhibition curves / MICs in S. aureus cultures (strain not named or summary over strains); assay type: cell-based, Staphylococcus aureus; conditions: for MIC: Staphylococcus aureus
Method: (§2) Antimicrobial susceptibility testing. Minimal inhibitory concentrations (MIC) of all nucleoside analogues and TOUCANs against each bacteria strain were determined using broth microdilution method. A single colony obtained from overnight culture on tryptone soy agar with 5% defibrinated sheep blood was inoculated in cation-adjusted Mueller Hinton Broth and adjusted to 10^6 CFU/mL. TOUCANs were prepared in PBS+/+ (treatment) and serial dilutions were made in 96-well polystyrene round bottom microwell plates with 50 μL final volume for each concentration. PBS+/+ was used as untreated control. Next, 50 μL bacteria solutions were added to each well to a final bacteria concentration of 5×10^5 CFU/mL. Plates were incubated at 37° C. in Cytation 1 Cell Imaging Multimode Reader. Growth curves were obtained by measuring optical densities at 600 nm every 10 minutes for 18 hours using Cytation 1 Cell Imaging Multimode Reader. In addition, visual inspection of the plates was carried out after 18 hours and photographs were taken. MICs were defined as the lowest drug concentration in the microwell at which bacterial growth was not visible at the end of the incubation period. Besides MIC determination, specificity of TOUCAN 7mGe was also shown with subcultures on chromogenic media. For this purpose, 5 μL of different concentrations of each strain were inoculated onto CHROM agar Orientation Media (Becton Dickinson) and the bacterial growth of each bacteria strain tested was observed by naked eye after incubation at 37° C. for 24 hours. Finally, photographs of the chromogenic media were taken.

[2] = tested on: S. aureus NCTC 12493 (MRSA); experiment: Broth microdilution MIC and growth inhibition; assay type: cell-based, Staphylococcus aureus; conditions: for MIC: Staphylococcus aureus; for % Growth inhibition: mean ± SD, n = 3
From the text: (§3) Bacteria strains. S. aureus NCTC 12493 (MRSA), S. aureus ATCC 29213 (MSSA), S. aureus ATCC 43300 (MRSA), S. aureus ATCC 1707 (MRSA), S. aureus ATCC 1717 (MRSA), S. aureus ATCC 1747 (MRSA), S. aureus ATCC 1761 (MRSA), S. aureus ATCC 1766 (MRSA), S. aureus ATCC 1768 (MRSA), S. epidermidis ATCC 35984, E. coli ATCC 25922, K. pneumoniae ATCC 13883, P. mirabilis ATCC 25933, S. enterica ATCC 14028 and P. aeruginosa ATCC 10145 strains were used in this study. Bacteria were initially inoculated onto tryptone soy agar with 5% defibrinated sheep blood (Thermo Fisher Scientific, Inc., Waltham, MA, USA) and incubated at 37° C. for 24 hours. Then, single colonies of each strain were transferred to tryptone soy broth (Thermo Fisher Scientific) for the nuclease activity assay or antimicrobial susceptibility testing, respectively.
as §2

[3] = tested on: S. aureus ATCC 29213 (MSSA); experiment: Broth microdilution MIC and growth inhibition; assay type: cell-based, Staphylococcus aureus; conditions: for MIC: Staphylococcus aureus; for % Growth inhibition: mean ± SD, n = 3
From the text: as §3, §2

P. mirabilis ATCC 25933 = experiment: Broth microdilution MIC and growth inhibition (control bacteria); assay type: cell-based, Proteus mirabilis; conditions: Proteus mirabilis, ATCC25933, 18 h, TOUCAN as NA equivalent, read-out: MIC
From the text: as §3, §2

[4] = tested on: Breast cancer cells (MDAMB231); experiment: Anti-cancer drug susceptibility testing, breast cancer cells, 72 h; assay type: cell-based; conditions: 72 h of treatment; Gemcitabine alone, TOUCAN 7mGe spiked with MN; FIG. 14
Method: (§4) Anti-cancer drug susceptibility testing for TOUCAN 7mGe. Gemcitabine and equivalent 7mGe solutions were prepared as explained before. Then, 7mGe was pre-exposed to 10 μl of 10 U MN for 1 hour at 37° C. (7mGe+MN). 100 μl of both drugs (Gemcitabine and 7mGe+MN) were added to the related wells and serially diluted using PBS+/+making the final concentrations between 100-2 μg/μl. Breast cancer cells (MDAMB231) and Pancreatic cancer cells (ASPC-1) were prepared as 10.000 cells/ml and 100 μl cell suspensions were added to each well. The plate was incubated at 37° C. for 72 hours. At 48th hour of incubation, 100 μl CyQUANT® Direct Cell Proliferation Assay kit was added to each well. Cell counts and images were taken at the end of 72 hours incubation period using Cytation 1 Cell Imaging Multi-Mode Reader.

K. pneumoniae ATCC 13883 = experiment: Broth microdilution MIC and growth inhibition (control bacteria); assay type: cell-based; conditions: Klebsiella pneumoniae, ATCC13883, 18 h, TOUCAN as NA equivalent, read-out: MIC
From the text: as §3, §2

S. enterica ATCC 14028 = experiment: as above; assay type: cell-based; conditions: Salmonella enterica, ATCC14028, 18 h, TOUCAN as NA equivalent, read-out: MIC
From the text: as §3, §2

P. aeruginosa ATCC 10145 = experiment: as above; assay type: cell-based; conditions: Pseudomonas aeruginosa, ATCC10145, 18 h, TOUCAN as NA equivalent, read-out: MIC
From the text: as §3, §2

[5] = tested on: S. epidermidis ATCC 35984; experiment: as above; assay type: cell-based, Staphylococcus epidermidis; conditions: Staphylococcus epidermidis, ATCC35984; S. epidermidis ATCC 35984; 18 h; TOUCAN as NA equivalent; read-out: MIC
From the text: as §3, §2

E. coli ATCC 25922 = experiment: as above; assay type: cell-based, Escherichia coli; conditions: Escherichia coli, ATCC25922, 18 h, TOUCAN as NA equivalent, read-out: MIC
From the text: as §3, §2

[6] = tested on: S. aureus ATCC 43300 (MRSA); experiment: Broth microdilution MIC and growth inhibition; assay type: cell-based, Staphylococcus aureus; conditions: Staphylococcus aureus, 18 h, TOUCAN as NA equivalent, read-out: MIC
From the text: as §3, §2

[7] = tested on: S. aureus ATCC 1717 (MRSA); experiment: Broth microdilution MIC and growth inhibition; assay type: cell-based, Staphylococcus aureus; conditions: Staphylococcus aureus, 18 h, TOUCAN as NA equivalent, read-out: MIC
From the text: as §3, §2

[8] = tested on: S. aureus ATCC 1766 (MRSA); experiment: Broth microdilution MIC and growth inhibition; assay type: cell-based, Staphylococcus aureus; conditions: Staphylococcus aureus; S. aureus ATCC 1766 (MRSA); 18 h; TOUCAN as NA equivalent; read-out: MIC
From the text: as §3, §2

[9] = tested on: S. aureus ATCC 1747 (MRSA); experiment: Broth microdilution MIC and growth inhibition; assay type: cell-based, Staphylococcus aureus; conditions: Staphylococcus aureus, 18 h, TOUCAN as NA equivalent, read-out: MIC
From the text: as §3, §2

[10] = tested on: S. aureus ATCC 1768 (MRSA); experiment: Broth microdilution MIC and growth inhibition; assay type: cell-based, Staphylococcus aureus; conditions: Staphylococcus aureus, 18 h, TOUCAN as NA equivalent, read-out: MIC
From the text: as §3, §2

[11] = tested on: S. aureus ATCC 1707 (MRSA); experiment: Broth microdilution MIC and growth inhibition; assay type: cell-based, Staphylococcus aureus; conditions: Staphylococcus aureus, 18 h, TOUCAN as NA equivalent, read-out: MIC
From the text: as §3, §2

[12] = tested on: S. aureus ATCC 1761 (MRSA); experiment: Broth microdilution MIC and growth inhibition; assay type: cell-based, Staphylococcus aureus; conditions: Staphylococcus aureus, 18 h, TOUCAN as NA equivalent, read-out: MIC
From the text: as §3, §2

[13] = tested on: Pancreatic cancer cells (ASPC-1); experiment: Anti-cancer drug susceptibility testing, pancreatic cancer cells, 72 h; assay type: cell-based; conditions: 72 h cultures; Gemcitabine alone, TOUCAN 7mGe spiked with MN; FIG. 13
Method: as §4

[14] = Table 1, S. aureus NCTC 12493, read-out: MIC
[15] = Table 1, S. aureus ATCC 29213, read-out: MIC

FAM-mU-mU-mU-mU-T-T-mU-mU-mU-mU-TQ2 [TTprobe2]
degradation by nucleases (S. aureus (MN+); S. aureus cultures, FIG. 3): efficient degradation | degradation by nucleases (S. aureus (MN+); all S. aureus strains used in the study, FIG. 4): efficiently | stability in presence of control bacteria [1]: rendered stable

T-T-Ge-mU-mU-mU-mU [SDR probe]
inhibition of bacterial growth (therapeutic efficacy) (S. aureus; combinations of the R-S-D moieties, FIG. 1c): 30%

O=c1[nH]c(=O)n([C@H]2C[C@H](O)[C@@H](CO)O2)cc1I [Idoxuridine]
MIC [2, 14]: > 40000 ng/mL | % Growth inhibition ([2]; Table 1, S. aureus NCTC 12493): 46.0 ± 0.6% | MIC [3, 15]: > 40000 ng/mL | % Growth inhibition ([3]; Table 1, S. aureus ATCC 29213): 13.4 ± 3.4%

O=c1[nH]c(=O)n([C@H]2C[C@H](O)[C@@H](CO)O2)cc1C(F)(F)F [Trifluridine]
MIC [2]: 10000 ng/mL (≈ 33.8 µM) | % Growth inhibition ([2]; Table 1, S. aureus NCTC 12493): 88.5 ± 1.1% | MIC [3]: 10000 ng/mL (≈ 33.8 µM) | % Growth inhibition ([3]; Table 1, S. aureus ATCC 29213): 89.0 ± 5.1%

Nc1ccn([C@@H]2O[C@H](CO)[C@@H](O)C2(F)F)c(=O)n1 [Gemcitabine, reference compound]
MIC (P. mirabilis ATCC 25933): > 40000 ng/mL | therapeutic effect in breast cancer cells (viability) [4]: clear therapeutic effect | MIC (K. pneumoniae ATCC 13883): > 40000 ng/mL | MIC (S. enterica ATCC 14028): > 40000 ng/mL | MIC (P. aeruginosa ATCC 10145): > 40000 ng/mL | MIC (S. aureus; read-out: MIC values over all S. aureus strains tested): 4 to 16 ng/mL (≈ 0.0152 to 0.0608 µM) | MIC (S. aureus; S. aureus, strain not given, read-out: MIC): 4 ng/mL (≈ 0.0152 µM) | MIC [5]: 2 ng/mL | MIC (E. coli ATCC 25922): > 40000 ng/mL | MIC [6]: 4 ng/mL | MIC [7]: 8 ng/mL | MIC [8]: 8 ng/mL | MIC [9]: 8 ng/mL | MIC [10]: 8 ng/mL | MIC ([2]; S. aureus NCTC 12493 (MRSA), 18 h, TOUCAN as NA equivalent, read-out: MIC): 4 ng/mL | MIC [2, 14]: 4 ng/mL (≈ 0.0152 µM) | % Growth inhibition ([2]; Table 1, S. aureus NCTC 12493): 93.7 ± 0.2% | MIC [11]: 8 ng/mL | MIC [12]: 16 ng/mL | MIC ([3]; S. aureus ATCC 29213 (MSSA), 18 h, TOUCAN as NA equivalent, read-out: MIC): 4 ng/mL | MIC [3, 15]: 4 ng/mL (≈ 0.0152 µM) | % Growth inhibition ([3]; Table 1, S. aureus ATCC 29213): 94.2 ± 0.04% | killing of pancreatic cancer cells (viability) [13]: efficient in killing

mU-mU-mU-mU-T-T-Ge-mU-mU-mU-mU (UUUUTTGUUUU; chemistry not given here) [TTGe, TOUCAN with Gemcitabine downstream of TT]
bacterial growth inhibition (S. aureus; S. aureus cultures, optical density (OD) over 18 h, FIG. 1b): around 20%
